These results are taken from patent publication US9902740B2, “Macrocyclic benzodiazepine dimers, conjugates thereof, preparation and uses” (BRISTOL-MYERS SQUIBB COMPANY, priority 2015, dated 2018).

SMILES strings stand for the structures. Like-named read-outs stand apart in the source and are kept apart here.

Holding throughout (assay type): cell-based
Assay [1] relates to H226 human lung cancer cell line. The assay can be described thus: Cytotoxic activity of dimers against H226 cells. The text has this: (§1) H226 is a human lung cancer cell line. N87 is a human gastric cancer cell line. OVCAR3 is a human ovarian cancer cell line. HCT116 is a human colon cancer cell line. HCT116/VM46 is a human colon cancer cell line that is multi-drug and paclitaxel resistant.

Assay [2] deals with N87 human gastric cancer cell line. The assay can be described thus: Cytotoxic activity of dimers against N87 cells. As to conditions: read-out: Cell Line (IC50, nM) N87.
Excerpt: as §1

The subject of assay [3] is OVCAR3 human ovarian cancer cell line. The assay can be described thus: Cytotoxic activity of dimers against OVCAR3 cells.
Excerpt: as §1

Assay [4] relates to HCT116 human colon cancer cell line. The assay can be described thus: Cytotoxic activity of dimers against HCT116 cells.
Excerpt: as §1

Assay [5] relates to HCT116/VM46 human colon cancer cell line (multi-drug and paclitaxel resistant). As to the kind of experiment: Cytotoxic activity of dimers against HCT116/VM46 cells.
Excerpt: as §1

[6] abbreviates: Homo sapiens, NCI-H226, read-out: Cell Line (IC50, nM) H226.
Where [7] appears, read: Homo sapiens, OVCAR-3, read-out: Cell Line (IC50, nM) OVCAR3.
[8] abbreviates: Homo sapiens, HCT-116/VM46, Table 4.
Where [9] appears, read: Table 4, H226 human lung cancer cell line, read-out: Cell Line (IC50, nM) H226.
Where [10] appears, read: Table 4, N87 human gastric cancer cell line.
Where [11] appears, read: Table 4, OVCAR3 human ovarian cancer cell line, read-out: Cell Line (IC50, nM) OVCAR3.

Turning to `COc1ccc(C2=CN3C(=O)c4cc5c(cc4N=C[C@@H]3C2)OCCCOc2cc3c(cc2OCCCCCCCCO5)C(=O)N2C=C(c4ccc(N)cc4)C[C@H]2C=N3)cc1` [IIc-11], the IC50 in assay [1] (setting [6]) was 0.36 nM; in assay [2] (Homo sapiens) it was 0.56 nM; in assay [3] (setting [7]), 0.31 nM; in assay [4] (HCT-116, Table 4), 0.063 nM; in assay [5] (setting [8]) it was 0.36 nM.
On to `Nc1ccc(CN2CCCCOc3cc4c(cc3OCCCOc3cc5c(cc3OCCCC2)C(=O)N2Cc3ccccc3C[C@H]2C=N5)N=C[C@@H]2Cc3ccccc3CN2C4=O)cc1` [IIb-8], for which the IC50 turned out to be 0.13 nM in assay [1] (setting [9]); 0.27 nM in assay [2] (setting [10]); 0.25 nM in assay [3] (setting [11]); 0.015 nM in assay [4] (Table 4); 1.2 nM in assay [5] (Table 4).
Consider `COc1ccc(C2=CN3C(=O)c4cc5c(cc4N=C[C@@H]3C2)OCCCOc2cc3c(cc2OCCCCCCCCO5)C(=O)N2C=C(c4ccc(OC)cc4)C[C@H]2C=N3)cc1` [IIc-7], for which the IC50 came to 0.99 nM in assay [1] (setting [9]); 0.62 nM in assay [2] (setting [10]); 1.8 nM in assay [3] (setting [11]); 0.17 nM in assay [4] (Table 4); 1.1 nM in assay [5] (Table 4).
In the case of `CC1=CN2C(=O)c3cc4c(cc3N=C[C@@H]2C1)OCCCOc1cc2c(cc1OCCCCCCCCO4)C(=O)N1C=C(c3ccc(N)cc3)C[C@H]1C=N2` [IId-1], the IC50 was determined as 0.66 nM in assay [1] (setting [6]); 1.4 nM in assay [2] (Homo sapiens); 1.2 nM in assay [3] (setting [7]); 0.14 nM in assay [4] (HCT-116, Table 4); 1.2 nM in assay [5] (setting [8]).
In the case of `O=C1c2cc3c(cc2N=C[C@@H]2Cc4ccccc4CN12)OCCCOc1cc2c(cc1OCCCCNCCCCO3)C(=O)N1Cc3ccccc3C[C@H]1C=N2` [IIb-5], the IC50 was determined as 0.45 nM in assay [1] (setting [9]); 0.35 nM in assay [2] (setting [10]); 0.6 nM in assay [3] (setting [11]); 0.077 nM in assay [4] (Table 4); 7.3 nM in assay [5] (Table 4).
Consider `CN1CCN(c2ccc(C3=CN4C(=O)c5cc6c(cc5N=C[C@@H]4C3)OCCCOc3cc4c(cc3OCCCCCCCCO6)C(=O)N3C=C(c5ccc(N6CCN(C)CC6)cc5)C[C@H]3C=N4)cc2)CC1` [IIc-8], for which the IC50 in assay [1] (setting [9]) is 0.047 nM; in assay [2] (setting [10]), 0.034 nM; in assay [3] (setting [11]), 0.35 nM; in assay [4] (Table 4) it was 0.006 nM; in assay [5] (Table 4), 0.076 nM.
The corresponding values for `O=C1c2cc3c(cc2N=C[C@@H]2CC(c4ccccc4)=CN12)OCCCOc1cc2c(cc1OCCOCCOCCO3)C(=O)N1C=C(c3ccccc3)C[C@H]1C=N2` [IIc-6] are 1.1 nM, 1.5 nM, 1.7 nM, 0.13 nM and 6.4 nM.
Regarding `COCCOc1ccc(C2=CN3C(=O)c4cc5c(cc4N=C[C@@H]3C2)OCCCOc2cc3c(cc2OCCCCCCCCCCCCO5)C(=O)N2C=C(c4ccc(OCCOC)cc4)C[C@H]2C=N3)cc1` [IIc-3], the IC50 in assay [1] (setting [9]) worked out at 32 nM; in assay [2] (setting [10]) it was 29 nM; in assay [3] (setting [11]) it was 104 nM; in assay [4] (Table 4), 13 nM; in assay [5] (Table 4) it was 58 nM.
